Experimental data taken from US10258625B2, “Method for treatment of metastatic and refractory cancers and tumors with an inducer that overcomes inhibition of T cell proliferation” (The Wistar Institute of Anatomy and Biology, priority 2015, dated 2019).
Read-outs that look alike come from different tables or passages of the source.

Tests used:
human T cells = assay: ConA-induced activation and expansion of human T cells (high-throughput screen); type: cell-based; conditions: for EC50: T-cell, 168 h, read-out: EC50-T cells
[1] = tested on: A2780 ovarian cancer cells; assay: Molecular screening of compounds on A2780 cell proliferation (resazurin fluorescence); type: cell-based, human; conditions: for EC50: Homo sapiens, A2780 cells cultured 3 days (72 hrs), from normalized percent inhibition, N/A = ambiguous curve fits or EC50 greater than highest concentration tested (25 μM)
Description: Plots show the normalized percent inhibition (NPI) vs. concentration in log (μM).
(§1) Cell proliferation assays—Cells were plated in 96-well plates. Compounds were added the next morning, and cell proliferation was measured 48 hrs later with the […] 96 MTS assay (Promega) according to the manufacturer's instructions. Molecular screening of compounds on A2780 cells was performed by adding compounds the morning after plating in 384-well plates and measuring proliferation 72 hrs later with resazurin fluorescence. Normalized percent inhibition (NPI) was calculated with respect to fluorescence values obtained with DMSO negative control and doxorubicin (5 μM) positive control as NPI=100%*(DMSO−compound)/(DMSO−doxorubicin).
EC50 values were calculated from normalized percent inhibition data using non-linear curve fitting in PRISM software.

MCF-7 tumor cells = assay: MCF-7 cell proliferation, MTS assay; type: cell-based, human; conditions: 2 days, compared with T cell division indices
Description: Representative results from one of two independent experiments.
as §1

T cells = assay: Cytokine rescue of T cell proliferation from MEK inhibition; type: cell-based, human; conditions: IL-2 20 U/ml, IL-7 2 ng/ml, IL-15 10 ng/ml, IL-21 100 ng/ml, IL-27 50 ng/ml, ALT-803 35.7 ng/ml
From the text: Proliferation of CD8 T cells after 7 days is shown.
Proliferation of CD8 T cells is shown.
Reported are percentages of cells that proliferated with GDC0973 relative to vehicle treatment with the same cytokines after 7 days. Stains are not depicted.
T cell stimulation—For human T cell proliferation assays, peripheral blood lymphocytes were obtained by leukapheresis/elutriation and Miltenyi bead-purified and K562 cells expressing human CD32 were generated as previously described^41. K32 were γ-irradiated (100 Gy) and loaded with anti-CD3 (500 ng/ml, clone OKT3; eBioscience) plus anti-CD28 (500 ng/ml, clone 15E8; EMD Millipore) antibodies at room temperature for 10 minutes. PBMCs were labeled with CELLTRACE Violet stain (Invitrogen) according to the manufacturer's instructions and cocultured with loaded K32 cells at a 10:1 T cell to K32 ratio or activated with ConA (2 μg/ml, Sigma). Proliferation of stimulated T cells was determined 7 days later by FACS and Division Index was calculated using FlowJo™ software.

[2] = human T cells activated with ConA for 7 days, from normalized percent inhibition, N/A = ambiguous curve fits or EC50 greater than highest concentration tested (25 μM)

CN(C)CC[C@H](CSc1ccccc1)Nc1ccc(S(=O)(=O)NC(=O)c2ccc(N3CCN(Cc4ccccc4-c4ccc(Cl)cc4)CC3)cc2)cc1[N+](=O)[O-] [ABT737]
EC50 (human T cells; [2]): 61 nM

Cn1c(=O)n(-c2ccc(C(C)(C)C#N)cc2)c2c3cc(-c4cnc5ccccc5c4)ccc3ncc21 [BEZ235]
EC50 (human T cells; [2]): 2.4 nM | EC50 [1]: 21 nM

Cc1[nH]c2ccccc2c1CCNCc1ccc(/C=C/C(=O)NO)cc1 [LBH589]
EC50 (human T cells; [2]): 25 nM

C[C@]1(O)C[C@@H](c2nc(-c3ccc4ccc(-c5ccccc5)nc4c3)c3c(N)nccn32)C1 [OSI906]
activity on T cells (in words) (human T cells; ConA-driven in vitro proliferation of human T cells): did not show any activity | activity on A2780 cells (in words) [1]: did not show any activity | MCF-7 tumor cell proliferation (MCF-7 tumor cells): reduction in tumor cell proliferation at concentrations that did not affect T cells

CC(=O)c1c(C)c2cnc(Nc3ccc(N4CCNCC4)cn3)nc2n(C2CCCC2)c1=O [PD0332991]
EC50 (human T cells; [2]): 110 nM

N#CC(=C(/N)Sc1ccccc1N)/C(C#N)=C(\N)Sc1ccccc1N [U0126]
EC50 (human T cells; Homo sapiens): 1920 nM | EC50 [1]: 12600 nM

IL-15: Recombinant human IL-15 (Novoprotein); proliferative cytokine
rescue of T cell proliferation in the presence of the MEK inhibitors (T cells): able to rescue

IL-21: cytokine of the panel of T cell survival and/or proliferation cytokines
rescue of T cell proliferation in the presence of the MEK inhibitors (T cells): no effect

B1: IL-27: cytokine of the panel of T cell survival and/or proliferation cytokines (protein, UniProt Q8NEV9 29-243; Q14213 21-229, looked up)
Interleukin-27 subunit alpha: FPRPPGRPQLSLQELRREFTVSLHLARKLLSEVRGQAHRFAESHLPGVNLYLLPLGEQLPDVSLTFQAWRRLSDPERLCFISTTLQPFHALLGGLGTQGRWTNMERMQLWAMRLDLRDLQRHLRFQVLAAGFNLPEEEEEEEEEEEEERKGLLPGALGSALQGPAQVSWPQLLSTYRLLHSLELVLSRAVRELLLLSKAGHSVWPLGFPTLSPQP
Interleukin-27 subunit beta: RKGPPAALTLPRVQCRASRYPIAVDCSWTLPPAPNSTSPVSFIATYRLGMAARGHSWPCLQQTPTSTSCTITDVQLFSMAPYVLNVTAVHPWGSSSSFVPFITEHIIKPDPPEGVRLSPLAERQLQVQWEPPGSWPFPEIFSLKYWIRYKRQGAARFHRVGPIEATSFILRAVRPRARYYVQVAAQDLTDYGELSDWSLPATATMSLGK
rescue of T cell proliferation in the presence of the MEK inhibitors (T cells): no effect

B2: IL-7: recombinant mouse IL-7 (Peprotech) (protein, UniProt P10168 26-154, looked up)
Interleukin-7: ECHIKDKEGKAYESVLMISIDELDKMTGTDSNCPNNEPNFFRKHVCDDTKEAAFLNRAARKLKQFLKMNISEEFNVHLLTVSQGTQTLVNCTSKEEKNVKEQKKNDACFLKRLLREIKTCWNKILKGSI
rescue of T cell proliferation in the presence of the MEK inhibitors (T cells): able to rescue
